Assay results: paper PMC8637440, “Structural Modifications Yield Novel Insights Into the Intriguing Pharmacodynamic Potential of Anti-inflammatory Nitro-Fatty Acids” (Frontiers in Pharmacology, 2021)

Assays:
sEH [1] = target: T1, sEH (Homo sapiens, UniProt P34913); assay type: biochemical; design: purchased Cayman Chemicals #10011671; conditions: 100 nM
T1 sequence (P34913 1-555): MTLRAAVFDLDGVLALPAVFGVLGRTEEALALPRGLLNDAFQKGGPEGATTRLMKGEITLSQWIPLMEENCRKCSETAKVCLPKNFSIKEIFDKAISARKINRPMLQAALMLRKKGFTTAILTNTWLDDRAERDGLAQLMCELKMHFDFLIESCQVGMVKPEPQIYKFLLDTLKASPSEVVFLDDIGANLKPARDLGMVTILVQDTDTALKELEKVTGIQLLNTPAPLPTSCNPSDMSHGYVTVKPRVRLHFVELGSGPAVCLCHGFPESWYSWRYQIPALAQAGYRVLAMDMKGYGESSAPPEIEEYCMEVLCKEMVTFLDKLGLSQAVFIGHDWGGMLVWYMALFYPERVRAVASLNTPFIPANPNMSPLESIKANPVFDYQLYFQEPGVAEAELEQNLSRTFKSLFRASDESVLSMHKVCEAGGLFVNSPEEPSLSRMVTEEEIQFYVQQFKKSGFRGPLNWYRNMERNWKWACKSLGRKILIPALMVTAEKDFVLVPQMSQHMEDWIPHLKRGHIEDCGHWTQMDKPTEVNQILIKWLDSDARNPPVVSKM
Description: FIGURE 3 Effects of NFA on sEH activity. […] Data are the mean ± SEM of n = 3–7. […] The cells were lysed, and hydrolase activity was measured by Epoxy Fluor 7 lysis. […] Statistical significance was calculated by one-way ANOVA with Bonferroni post-test and multiple comparisons against the DMSO control.

sEH [2] = assay: Cell-based sEH activity assay in COS-7 cells; design: species or system Afrikan green monkey; conditions: 10 µM, 24 h
Description: sEH activity in the cells was analyzed using a Soluble Epoxide Hydrolase Cell-Based Assay Kit (Cayman Chemical, #600090). […] Following incubation, the cells were processed according to the manufacturer’s instructions. The assay uses an internal signal subtraction to minimize potential errors generated by sEH-independent product formation due esterase mediated hydrolysis. The fluorescence intensity of the samples was measured in a plate reader at excitation/emission wavelengths of 330/465 nm sEH activity was calculated by the 6-methoxy-2-naphthaldehyde standard curve.
Suppl. Figure 2: Effects of NFA on sEH activity in COS-7 cells. sEH activity in COS-7 cells treated with NFA (10 µM) differ in (A) chain length and (B) Michael acceptor position and […]
Cells were lysed, and hydrolase activity was measured by Epoxy Fluor
7 lysis presented as mean + SD, n=2-3. […] OA, […]
oleic acid, she, soluble epoxide hydrolase.
(1 picture or pasted object on this page, not shown here)

[3] = target: T2, recombinant firefly luciferase (Photinus pyralis, UniProt P08659); assay: Firefly luciferase activity assay; assay type: biochemical; conditions: 15 min at 37°C
T2 construct: purchased Sigma-Aldrich
T2 sequence (P08659 whole entry): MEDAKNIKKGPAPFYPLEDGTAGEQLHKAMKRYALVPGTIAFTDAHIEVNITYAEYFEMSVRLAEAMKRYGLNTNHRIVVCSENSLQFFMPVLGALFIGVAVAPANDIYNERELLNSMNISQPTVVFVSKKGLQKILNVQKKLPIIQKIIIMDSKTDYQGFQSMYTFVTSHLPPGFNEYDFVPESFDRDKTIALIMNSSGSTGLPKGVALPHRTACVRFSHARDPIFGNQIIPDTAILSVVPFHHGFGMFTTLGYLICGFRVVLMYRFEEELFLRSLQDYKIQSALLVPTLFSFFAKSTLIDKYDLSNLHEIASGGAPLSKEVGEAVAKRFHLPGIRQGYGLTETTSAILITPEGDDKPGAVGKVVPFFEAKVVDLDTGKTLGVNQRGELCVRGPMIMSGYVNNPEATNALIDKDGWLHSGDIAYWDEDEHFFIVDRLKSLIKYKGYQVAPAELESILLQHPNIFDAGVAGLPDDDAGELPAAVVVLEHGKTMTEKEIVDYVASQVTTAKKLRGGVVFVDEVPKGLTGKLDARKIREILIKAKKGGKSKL
Description: Recombinant firefly luciferase (Sigma-Aldrich, St. Louis, Missouri, United States) was diluted to 10^4 U/mg in 1× PBS (phosphate buffered saline) and subsequently incubated with NFA or the substances of interest for 15 min at 37°C. Afterwards, 50 µl per reaction mix was transferred into a white 96-well plate, to which 50 µl/well Dual-Glo® (Promega, Madison, Wisconsin, United States) was added and incubated for another 10 min at 37°C. Luminescence was analyzed with a plate reader.
Suppl. Figure 1: Fatty acids interfere with firefly luciferase making the luc-based assays not suitable for analysis of signaling pathways modulated by NFA. 10 4 units of firefly luciferase were incubated with 1 µM and 10 µM OA or NFA with different carbon chain length (A) and Michael acceptor position (B) for 15 min at 37°C. Firefly activity is presented as percentage of vehicle control (DMSO) mean + SD, n=5. Compared to vehicle control statistical significance was calculated by one-way ANOVA with Bonferroni post-test. P-values of **P ≦0.0021, **** P ≦0.0001 are considered significant. DMSO, dimethyl sulfoxide; 9NOA, 9-nitro oleic acid; NFA, nitro-fatty acids, OA, oleic acid. […]

Compound	inhibition of recombinant sEH (sEH [1])	inhibition of sEH activity in COS-7 cells (sEH [2])	inhibition at 1 µM ([3]; 1 µM)	inhibition of recombinant firefly luciferase ([3]; 10 µM)
CCCCCCCC/C=C\CCCCCCCC(=O)O [OA, oleic acid, reference compound]	strong suppressive effect	strong suppressive effect	–	–
CCCCCCCCC=C(CCCCCCCC(=O)O)[N+](=O)[O-] [18.9.9, 9-nitro-octadec-9-enoic acid]	–	–	> 50%	complete inhibition
